# According to patent publication US20230271938A1, “BENZIMIDAZOLES FOR USE IN THE TREATMENT OF CANCER AND INFLAMMATORY DISEASES” (Capella Therapeutics, Inc., priority 2015, published 2023):
# pIC50: −log10 of the molar value.
# How the values were obtained:
# BTK = BTK (Homo sapiens, UniProt Q06187); assay: Inhibition of BTK kinase; format: biochemical; conditions: 1% DMSO
# Text: (§1) The Z′-LYTE® biochemical assay is a fluorescence-based, coupled-enzyme assay based on the differential sensitivity of phosphorylated and non-phosphorylated peptides to proteolytic cleavage. A peptide substrate for a kinase is labeled with two fluorophores, one at each end, to form a FRET pair.
# (§2) In the primary reaction, the kinase transfers the gamma-phosphate of ATP to a single tyrosine, serine, or threonine residue in the synthetic FRET-peptide substrate. In the secondary reaction, a site-specific protease recognizes and cleaves non-phosphorylated FRET-peptides. Cleavage disrupts FRET between the donor and acceptor fluorophores on the FRET-peptide, whereas uncleaved, phosphorylated FRET-peptides maintain FRET. An inhibitory activity of a compound is thus determined from its effect on the cleavage of the synthetic FRET-peptide substrate.
# Inhibition of BMX, BTK, ITK, and TXK kinases by a test compound is determined in 50 mM HEPES, pH 7.5, 0.01% BRIJ-35, 10 mM MgCl2, and 1 mM EGTA in the presence of 1% DMSO by volume.
# (§3) Inhibition of BMX, BTK, PIK3C-D, ITK, TEC, and TXK kinases by compound A2 was measured using one of the assays described in Examples 2A and 3A.
# PIK3C-D = PIK3C-D (Homo sapiens, UniProt O00329); assay: Inhibition of PIK3C-D kinase; format: biochemical
# Chain of PIK3C-D (O00329 whole entry): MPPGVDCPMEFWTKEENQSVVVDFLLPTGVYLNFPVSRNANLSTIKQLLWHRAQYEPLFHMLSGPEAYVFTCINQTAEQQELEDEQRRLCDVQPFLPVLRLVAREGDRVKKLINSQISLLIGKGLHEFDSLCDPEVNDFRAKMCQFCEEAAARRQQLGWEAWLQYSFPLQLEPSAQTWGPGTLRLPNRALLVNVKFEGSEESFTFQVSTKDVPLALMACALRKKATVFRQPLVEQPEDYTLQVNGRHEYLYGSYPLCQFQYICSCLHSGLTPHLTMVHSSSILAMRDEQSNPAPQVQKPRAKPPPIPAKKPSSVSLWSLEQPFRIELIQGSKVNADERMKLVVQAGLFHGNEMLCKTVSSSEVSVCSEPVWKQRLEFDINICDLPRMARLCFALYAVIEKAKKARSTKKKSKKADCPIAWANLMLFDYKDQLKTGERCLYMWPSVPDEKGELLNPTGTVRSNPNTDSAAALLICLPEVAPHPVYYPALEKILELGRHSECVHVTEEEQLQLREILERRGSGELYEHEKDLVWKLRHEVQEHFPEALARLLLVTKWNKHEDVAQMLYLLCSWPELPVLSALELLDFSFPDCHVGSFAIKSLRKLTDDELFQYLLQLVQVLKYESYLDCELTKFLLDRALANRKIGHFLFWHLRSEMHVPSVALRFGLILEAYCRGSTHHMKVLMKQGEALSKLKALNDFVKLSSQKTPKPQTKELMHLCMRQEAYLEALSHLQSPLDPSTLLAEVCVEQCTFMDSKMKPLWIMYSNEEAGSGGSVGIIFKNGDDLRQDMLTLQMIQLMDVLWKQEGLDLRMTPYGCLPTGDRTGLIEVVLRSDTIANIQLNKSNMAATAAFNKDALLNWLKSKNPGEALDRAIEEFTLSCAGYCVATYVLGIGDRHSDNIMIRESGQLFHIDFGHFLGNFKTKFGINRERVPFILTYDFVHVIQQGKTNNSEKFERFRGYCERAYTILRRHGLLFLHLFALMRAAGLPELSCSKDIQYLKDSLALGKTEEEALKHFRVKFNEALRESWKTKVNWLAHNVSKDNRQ
# Chain of PIK3C-D (P27986 whole entry partner): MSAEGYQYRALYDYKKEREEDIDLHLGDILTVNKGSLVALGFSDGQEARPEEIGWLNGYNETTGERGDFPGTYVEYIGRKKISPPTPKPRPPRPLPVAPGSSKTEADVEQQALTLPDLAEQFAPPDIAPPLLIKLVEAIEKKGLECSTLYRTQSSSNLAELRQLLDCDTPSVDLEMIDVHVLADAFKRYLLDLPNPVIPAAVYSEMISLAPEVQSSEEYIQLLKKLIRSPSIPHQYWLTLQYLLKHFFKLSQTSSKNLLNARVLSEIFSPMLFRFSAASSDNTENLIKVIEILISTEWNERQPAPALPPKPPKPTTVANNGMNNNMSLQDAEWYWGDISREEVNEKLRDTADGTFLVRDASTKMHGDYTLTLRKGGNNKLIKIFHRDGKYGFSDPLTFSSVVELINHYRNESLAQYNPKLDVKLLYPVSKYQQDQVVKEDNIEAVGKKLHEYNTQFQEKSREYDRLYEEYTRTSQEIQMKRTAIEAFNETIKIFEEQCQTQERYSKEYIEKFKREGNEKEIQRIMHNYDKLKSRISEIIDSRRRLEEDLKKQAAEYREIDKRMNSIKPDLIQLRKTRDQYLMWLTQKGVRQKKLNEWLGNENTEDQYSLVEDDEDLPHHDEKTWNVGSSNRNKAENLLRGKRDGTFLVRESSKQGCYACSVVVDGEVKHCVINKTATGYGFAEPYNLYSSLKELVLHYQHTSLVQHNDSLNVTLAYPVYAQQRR
# Text: as §1, §2
# Binding of an ALEXA FLUOR® conjugate or “tracer” to a kinase is detected by addition of a Eu-labeled anti-tag antibody. […] An inhibitory activity of a compound is thus determined from the extent of the FRET signal loss. Inhibition of ITK and TEC kinases by a test compound is determined in the presence of 1% DMSO.
# as §3
# [1] = system: human epidermal keratinocytes, neonatal, or HEKn cells (wild-type ERBB1); assay: Cell proliferation assay, HEKn; format: cell-based; conditions: Keratinocyte, 72 hrs
# Experimental: (§4) The biological activity of a test compound was determined using cell proliferation assays. The activity against wild-type ERBB 1 was determined using A431 human epidermoid carcinoma cells (ATCC) and human epidermal keratinocytes, neonatal, or HEKn cells (ATCC).
# (§5) A431 cells were grown in DMEM (Invitrogen) supplemented with 10% FBS (Lonza), 1% penicillin-streptomycin, and 2 mM glutamine (Invitrogen). HEKn cells were grown in EPILIFE® (Invitrogen) supplemented with HKGS (Invitrogen). HCC827 and H1975 were cultured in RPMI1640 supplemented with 10% FBS (Lonza), 1% penicillin-streptomycin, and 2 mM glutamine (Invitrogen). Cells were maintained and propagated at 37° C. and 5% CO2 in a humidified cell culture incubator. Aliquots of cells from early passages were preserved for liquid nitrogen storage. Frozen vials of cells were thawed at 37° C. water bath. Cells were spun to remove freezing medium. The newly revived frozen cells were adapted in culture for 10 days before used for compound testing. Cells used in the assay were less than 20 subculture passages or 3 months in culture.
# (§6) The test compounds were dissolved in dimethylsulfoxide (DMSO) and stored at -20° C. before testing. […] The cells were placed in a culture incubator overnight. Next day, test compounds in DMSO were added to the cells and placed back in the culture incubator for 72 hrs. In the meantime, the cell numbers at time zero of the compound treatment (T0) was measured by ENERCOUNT® (Codex BioSolutions). At the end of the compound treatment, the cell numbers were again measured by EnerCount as T72 values. The untreated controls (Ctrl) were cell numbers recorded from the 0.1% DMSO treatment. The percent growth inhibition by the test compound was calculated by the formula: (1- (T72-T0)/(Ctrl-T0)) x 100.
# (§7) The results are summarized in Tables 1 and 2, wherein A represents a value no greater than 500 nM, B represents a value greater than 500 nM but no greater than 1 µM, C represents a value greater than 1 µM but no greater than 5 µM, and D represents a value greater than 5 µM; and wherein A′ represents a ratio of greater than 10, B′ represents a ratio of no greater than 10 but no less than 5, C′ represents a ratio of no greater than 5 but no less than 2, and D′ represents a ratio of no greater than 2.
# [2] = system: A431 human epidermoid carcinoma cells (wild-type ERBB1); assay: Cell proliferation assay, A431; format: cell-based; conditions: A-431, 72 hrs
# Experimental: as §4, §5, §6, §7
# TEC = biological target: T1, TEC (Homo sapiens, UniProt P42680); assay: Inhibition of TEC kinase; format: binding; conditions: 1% DMSO
# T1 sequence (P42680 1-631): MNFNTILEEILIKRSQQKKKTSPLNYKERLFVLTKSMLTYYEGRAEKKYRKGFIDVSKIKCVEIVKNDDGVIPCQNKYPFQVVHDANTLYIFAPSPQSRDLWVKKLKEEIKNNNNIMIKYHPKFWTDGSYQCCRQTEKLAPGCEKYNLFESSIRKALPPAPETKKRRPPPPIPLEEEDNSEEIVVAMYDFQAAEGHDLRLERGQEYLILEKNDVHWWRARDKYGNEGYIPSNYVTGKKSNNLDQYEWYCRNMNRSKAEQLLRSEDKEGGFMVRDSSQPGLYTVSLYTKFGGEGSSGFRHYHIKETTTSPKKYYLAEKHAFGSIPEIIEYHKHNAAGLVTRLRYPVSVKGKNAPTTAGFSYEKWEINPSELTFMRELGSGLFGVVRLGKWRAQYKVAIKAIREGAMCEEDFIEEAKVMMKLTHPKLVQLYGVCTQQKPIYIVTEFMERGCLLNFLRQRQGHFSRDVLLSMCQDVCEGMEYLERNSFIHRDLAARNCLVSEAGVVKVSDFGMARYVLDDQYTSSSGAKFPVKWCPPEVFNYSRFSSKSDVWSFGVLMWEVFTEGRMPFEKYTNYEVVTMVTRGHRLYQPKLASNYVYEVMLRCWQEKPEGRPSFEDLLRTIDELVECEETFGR
# Experimental: Binding of an ALEXA FLUOR® conjugate or “tracer” to a kinase is detected by addition of a Eu-labeled anti-tag antibody. Binding of the tracer and antibody to a kinase results in a high degree of FRET, whereas displacement of the tracer with a kinase inhibitor results in a loss of FRET. An inhibitory activity of a compound is thus determined from the extent of the FRET signal loss. Inhibition of ITK and TEC kinases by a test compound is determined in the presence of 1% DMSO.
# as §3
# [3] = system: H1975 human NSCLC adenocarcinoma cells (drug-resistant mutant ERBB1, T790M in-cis with L858R); assay: Cell proliferation assay, H1975; format: cell-based
# Experimental: as §4, §5, §6, §7
# Chain of BTK (Q06187 whole entry): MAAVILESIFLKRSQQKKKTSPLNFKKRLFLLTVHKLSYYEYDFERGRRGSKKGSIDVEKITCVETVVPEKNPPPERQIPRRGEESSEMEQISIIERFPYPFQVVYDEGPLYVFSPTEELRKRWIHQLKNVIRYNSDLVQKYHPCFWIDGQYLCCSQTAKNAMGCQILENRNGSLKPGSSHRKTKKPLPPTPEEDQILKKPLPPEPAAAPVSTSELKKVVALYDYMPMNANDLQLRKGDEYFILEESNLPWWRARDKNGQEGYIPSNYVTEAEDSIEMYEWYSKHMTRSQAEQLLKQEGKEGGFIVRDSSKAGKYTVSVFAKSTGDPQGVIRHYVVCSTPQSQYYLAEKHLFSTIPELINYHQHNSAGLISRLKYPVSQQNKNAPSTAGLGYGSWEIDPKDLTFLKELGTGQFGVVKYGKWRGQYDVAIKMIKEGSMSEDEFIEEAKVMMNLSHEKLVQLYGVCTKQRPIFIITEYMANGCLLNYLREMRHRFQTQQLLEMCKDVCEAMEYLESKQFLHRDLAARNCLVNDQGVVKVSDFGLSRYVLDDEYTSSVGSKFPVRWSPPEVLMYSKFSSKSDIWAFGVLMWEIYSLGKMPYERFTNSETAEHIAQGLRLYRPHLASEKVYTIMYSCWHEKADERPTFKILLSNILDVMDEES
structure (smiles),measurement,setting,value
"C=CC(=O)N1CCCC[C@@H](n2c(NC(=O)c3ccnc(C)c3)nc3cccc(OC4CCN(C(C)=O)CC4)c32)C1 [Compound A2, (R)-N-(7-((1-acetylpiperidin-4-yl)oxy)-1-(1-acryloylazepan-3-yl)-1H-benzo[d]imidazol-2-yl)-2-methylisonicotinamide]",pIC50,BTK,≥ 8.00
same,Inhibition,BTK,A (A represents a value no greater than 10 nM or no less than 90% inhibition)
same,pIC50,PIK3C-D,≥ 8.00
same,Inhibition,PIK3C-D,A (A represents a value no greater than 10 nM or no less than 90% inhibition)
same,GI50,[1],> 5000 nM
same,GI50,[2],500 to 1000 nM
same,pIC50,TEC,≥ 8.00
same,Inhibition,TEC,A (A represents a value no greater than 10 nM or no less than 90% inhibition)
same,Ratio (Wild-type ERBB1/Mutant ERBB1) A431/H1975,[3]; GI50 ratio A431/H1975,B′ (B′ represents a ratio of no greater than 10 but no less than 5)
same,Ratio (Wild-type ERBB1/Mutant ERBB1) HEKn/H1975,[3]; GI50 ratio HEKn/H1975,A′ (A′ represents a ratio of greater than 10)
same,GI50,"[3]; Homo sapiens, NCI-H1975, H1975 cells, 72 hrs",< 500 nM
